Legend:
[1] = test system: A-375; test: Antiproliferative activity against human A375 cells assessed as reduction in cell viability incubated for 72 hrs by MTT assay; assay type: functional, cell-based; conditions: A-375, 72 h
[2] = test system: HCT-116; test: Antiproliferative activity against human HCT116 cells assessed as reduction in cell viability incubated for 72 hrs by MTT assay; assay type: functional, cell-based; conditions: HCT-116, 72 h
[3] = target: Serine/threonine-protein kinase mTOR (Homo sapiens, UniProt P42345); test: Inhibition of recombinant human N-terminal FLAG-tagged mTOR (1362 to end residues) using Ulight-4E-BP1 as substrate incubated for 30 mins by fluorescence assay
[4] = test system: HepG2; test: cells; conditions: Homo sapiens, HepG2, 72 h
[5] = target: PI3-kinase p110-delta/p85-alpha (Homo sapiens, UniProt O00329); test: Inhibition of recombinant human full length N-terminal GST-tagged PI3Kdelta (1 to 1044 residues)/PIK3R1 (1 to 724 residues) expressed in baculovirus expression system using PIP2 as substrate incubated for 2 hrs by ADP-Glo assay
[6] = target: Phosphatidylinositol 4,5-bisphosphate 3-kinase catalytic subunit alpha isoform (Homo sapiens, UniProt P42336); test: Inhibition of recombinant human full length N-terminal GST-tagged PI3Kalpha (1 to 1068 residues)/PIK3R1 (1 to 724 residues) expressed in baculovirus expression system using PIP2 as substrate incubated for 1 hr by ADP-Glo assay
[7] = test system: HeLa; test: Antiproliferative activity against human HeLa cells assessed as reduction in cell viability incubated for 72 hrs by MTT assay; assay type: functional, cell-based
[8] = test system: MCF7; test: cells; conditions: Homo sapiens, MCF7, 72 h
[9] = test system: A549; test: cells; conditions: Homo sapiens, A549, 72 h

Phosphatidylinositol 4,5-bisphosphate 3-kinase catalytic subunit alpha isoform, sequence (P42336 whole entry, looked up, the tested form may be a part, canonical isoform): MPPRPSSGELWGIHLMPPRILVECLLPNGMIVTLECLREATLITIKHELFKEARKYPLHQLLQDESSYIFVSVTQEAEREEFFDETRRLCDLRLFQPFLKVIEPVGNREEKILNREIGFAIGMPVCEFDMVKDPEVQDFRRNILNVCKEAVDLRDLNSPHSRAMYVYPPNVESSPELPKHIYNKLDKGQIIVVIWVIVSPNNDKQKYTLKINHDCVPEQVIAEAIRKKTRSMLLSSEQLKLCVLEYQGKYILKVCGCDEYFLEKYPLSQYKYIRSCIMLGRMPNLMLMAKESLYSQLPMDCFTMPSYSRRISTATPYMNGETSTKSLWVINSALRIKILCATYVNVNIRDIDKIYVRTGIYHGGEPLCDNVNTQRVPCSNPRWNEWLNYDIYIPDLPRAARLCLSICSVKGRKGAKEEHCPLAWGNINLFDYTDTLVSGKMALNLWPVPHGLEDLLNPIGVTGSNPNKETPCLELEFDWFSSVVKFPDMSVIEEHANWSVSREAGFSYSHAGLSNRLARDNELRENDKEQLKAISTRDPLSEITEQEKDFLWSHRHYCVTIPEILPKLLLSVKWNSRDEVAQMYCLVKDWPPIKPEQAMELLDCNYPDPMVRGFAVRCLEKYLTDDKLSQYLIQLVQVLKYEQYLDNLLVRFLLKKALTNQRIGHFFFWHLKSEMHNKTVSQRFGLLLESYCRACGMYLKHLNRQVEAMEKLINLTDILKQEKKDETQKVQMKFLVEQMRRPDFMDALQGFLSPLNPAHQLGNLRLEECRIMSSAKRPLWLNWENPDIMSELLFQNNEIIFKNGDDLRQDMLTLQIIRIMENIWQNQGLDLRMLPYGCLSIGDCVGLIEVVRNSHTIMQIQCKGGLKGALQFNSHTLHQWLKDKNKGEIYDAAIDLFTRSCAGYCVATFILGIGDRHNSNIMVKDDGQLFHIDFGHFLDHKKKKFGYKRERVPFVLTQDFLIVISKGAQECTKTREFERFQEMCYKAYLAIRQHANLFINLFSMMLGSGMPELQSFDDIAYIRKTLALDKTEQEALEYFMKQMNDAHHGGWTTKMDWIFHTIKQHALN
PI3-kinase p110-delta/p85-alpha, sequence (P27986 whole entry, the tested form may be a part, canonical isoform): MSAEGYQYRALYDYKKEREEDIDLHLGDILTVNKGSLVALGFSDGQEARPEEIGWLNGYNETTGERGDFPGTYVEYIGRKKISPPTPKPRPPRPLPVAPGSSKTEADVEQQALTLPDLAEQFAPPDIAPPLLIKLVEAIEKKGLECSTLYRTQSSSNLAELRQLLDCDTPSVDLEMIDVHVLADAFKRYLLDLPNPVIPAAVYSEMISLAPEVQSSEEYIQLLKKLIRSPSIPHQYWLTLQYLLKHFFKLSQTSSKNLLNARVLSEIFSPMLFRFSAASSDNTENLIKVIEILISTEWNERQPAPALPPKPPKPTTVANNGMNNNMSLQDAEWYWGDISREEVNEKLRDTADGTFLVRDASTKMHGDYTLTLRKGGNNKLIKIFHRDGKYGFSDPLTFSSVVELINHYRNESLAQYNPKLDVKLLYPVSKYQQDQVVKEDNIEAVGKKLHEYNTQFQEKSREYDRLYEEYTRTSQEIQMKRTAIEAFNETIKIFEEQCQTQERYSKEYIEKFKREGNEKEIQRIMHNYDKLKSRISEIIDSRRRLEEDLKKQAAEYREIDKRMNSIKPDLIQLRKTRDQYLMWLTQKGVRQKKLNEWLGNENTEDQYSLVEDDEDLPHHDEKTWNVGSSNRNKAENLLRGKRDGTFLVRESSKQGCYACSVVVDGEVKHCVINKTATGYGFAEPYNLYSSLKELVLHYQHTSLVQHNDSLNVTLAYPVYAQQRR
PI3-kinase p110-delta/p85-alpha, sequence (O00329 whole entry, the tested form may be a part, canonical isoform): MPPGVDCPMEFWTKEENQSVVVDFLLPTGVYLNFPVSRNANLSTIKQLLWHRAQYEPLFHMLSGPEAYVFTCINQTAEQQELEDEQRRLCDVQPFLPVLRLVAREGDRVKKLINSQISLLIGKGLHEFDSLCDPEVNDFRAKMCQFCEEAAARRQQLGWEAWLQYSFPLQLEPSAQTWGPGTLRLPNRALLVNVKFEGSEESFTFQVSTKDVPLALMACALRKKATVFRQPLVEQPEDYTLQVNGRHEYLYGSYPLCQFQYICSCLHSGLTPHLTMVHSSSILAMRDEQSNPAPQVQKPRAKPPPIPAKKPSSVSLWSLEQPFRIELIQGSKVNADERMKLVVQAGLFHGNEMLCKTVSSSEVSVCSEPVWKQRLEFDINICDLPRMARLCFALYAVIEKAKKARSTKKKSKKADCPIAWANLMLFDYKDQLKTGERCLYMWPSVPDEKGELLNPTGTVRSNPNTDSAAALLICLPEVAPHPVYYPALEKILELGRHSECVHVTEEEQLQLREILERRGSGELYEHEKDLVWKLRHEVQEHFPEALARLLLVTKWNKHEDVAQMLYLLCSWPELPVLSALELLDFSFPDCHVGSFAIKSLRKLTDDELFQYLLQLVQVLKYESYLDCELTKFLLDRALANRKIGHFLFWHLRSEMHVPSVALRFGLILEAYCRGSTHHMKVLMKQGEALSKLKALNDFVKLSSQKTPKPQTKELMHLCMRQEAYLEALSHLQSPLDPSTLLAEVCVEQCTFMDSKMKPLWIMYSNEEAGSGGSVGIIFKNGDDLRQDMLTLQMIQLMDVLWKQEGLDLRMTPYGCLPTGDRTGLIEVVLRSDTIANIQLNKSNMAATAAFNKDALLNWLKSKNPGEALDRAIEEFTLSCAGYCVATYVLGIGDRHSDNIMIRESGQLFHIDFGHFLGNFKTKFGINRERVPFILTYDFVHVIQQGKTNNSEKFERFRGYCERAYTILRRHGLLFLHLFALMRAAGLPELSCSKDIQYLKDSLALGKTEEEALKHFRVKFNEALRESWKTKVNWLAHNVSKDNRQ

O=C1COc2ccc(-c3cccc(NS(=O)(=O)c4ccc(F)cc4)c3)cc2N1c1ccc(F)cc1
IC50 [1]: > 40 µM | IC50 [2]: > 40 µM | IC50 [3]: > 1 µM | IC50 [4]: > 40 µM | IC50 [5]: > 10 µM | IC50 [6]: > 1 µM | IC50 [7]: > 40 µM | IC50 [8]: > 40 µM | IC50 [9]: > 40 µM

COc1cccc(N2C(=O)COc3ccc(-c4cccc(NS(=O)(=O)c5ccc(F)cc5)c4)cc32)c1
IC50 [1]: > 40 µM | IC50 [2]: > 40 µM | IC50 [3]: > 1 µM | IC50 [4]: > 40 µM | IC50 [5]: > 1 µM | IC50 [6]: > 1 µM | IC50 [7]: > 40 µM | IC50 [8]: > 40 µM | IC50 [9]: > 40 µM

COc1ccc(N2C(=O)COc3ccc(-c4cccc(NS(=O)(=O)c5ccc(F)cc5)c4)cc32)cc1
IC50 [1]: 38.5 µM | IC50 [2]: 28.3 µM | IC50 [3]: > 1 µM | IC50 [4]: 29.8 µM | IC50 [5]: > 1 µM | IC50 [6]: > 1 µM | IC50 [7]: 13.2 µM | IC50 [8]: 32.4 µM | IC50 [9]: 38.2 µM

O=C1COc2ccc(-c3ccc(O)cc3)cc2N1c1ccccc1
IC50 [1]: > 40 µM | IC50 [2]: > 40 µM | IC50 [3]: > 1 µM | IC50 [4]: > 40 µM | IC50 [5]: > 1 µM | IC50 [6]: > 1 µM | IC50 [7]: > 40 µM | IC50 [8]: 29 µM | IC50 [9]: > 40 µM

COc1ncc(-c2ccc3c(c2)N(c2ccc(F)cc2)C(=O)CO3)cc1NS(=O)(=O)c1ccc(F)cc1
IC50 [1]: > 40 µM | IC50 [2]: > 40 µM | IC50 [3]: 0.0349 µM | IC50 [4]: 36.4 µM | IC50 [5]: 0.019 µM | IC50 [6]: 0.021 µM | IC50 [7]: 10.5 µM | IC50 [8]: > 40 µM | IC50 [9]: 6.5 µM

COc1ncc(-c2ccc3c(c2)N(C2CCCCC2)C(=O)CO3)cc1NS(=O)(=O)c1ccc(F)cc1
IC50 [1]: > 40 µM | IC50 [2]: > 40 µM | IC50 [3]: 0.873 µM | IC50 [4]: > 40 µM | IC50 [5]: 0.406 µM | IC50 [6]: > 1 µM | IC50 [7]: 6.1 µM | IC50 [8]: 30.1 µM | IC50 [9]: 24.6 µM

O=C1COc2ccc(-c3cnc4ccccc4c3)cc2N1C1CC1
IC50 [1]: > 40 µM | IC50 [2]: > 40 µM | IC50 [3]: > 1 µM | IC50 [4]: > 40 µM | IC50 [5]: > 1 µM | IC50 [6]: > 1 µM | IC50 [7]: > 40 µM | IC50 [8]: 29.5 µM | IC50 [9]: > 40 µM

COc1ncc(-c2ccc3c(c2)N(c2ccc(C)cc2)C(=O)CO3)cc1NS(=O)(=O)c1ccc(F)cc1
IC50 [1]: 12.9 µM | IC50 [2]: 22.7 µM | IC50 [3]: 0.0138 µM | IC50 [4]: 28.3 µM | IC50 [5]: 0.017 µM | IC50 [6]: 0.012 µM | IC50 [7]: 4.65 µM | IC50 [8]: 15.4 µM | IC50 [9]: 5.87 µM

COc1ccc(N2C(=O)COc3ccc(-c4cnc5ccccc5c4)cc32)cc1
IC50 [1]: > 40 µM | IC50 [2]: > 40 µM | IC50 [3]: > 1 µM | IC50 [4]: > 40 µM | IC50 [5]: > 1 µM | IC50 [6]: > 1 µM | IC50 [7]: > 40 µM | IC50 [8]: > 40 µM | IC50 [9]: > 40 µM

COc1cccc(N2C(=O)COc3ccc(-c4cnc(OC)c(NS(=O)(=O)c5ccc(F)cc5)c4)cc32)c1
IC50 [1]: > 40 µM | IC50 [2]: > 40 µM | IC50 [3]: > 1 µM | IC50 [4]: > 40 µM | IC50 [5]: > 1 µM | IC50 [6]: > 1 µM | IC50 [7]: > 40 µM | IC50 [8]: > 40 µM | IC50 [9]: 11.2 µM

O=C1COc2ccc(-c3ccc(O)cc3)cc2N1c1ccc(Cl)cc1
IC50 [1]: > 40 µM | IC50 [2]: 39.6 µM | IC50 [3]: > 1 µM | IC50 [4]: > 40 µM | IC50 [5]: > 1 µM | IC50 [6]: > 1 µM | IC50 [7]: > 40 µM | IC50 [8]: > 40 µM | IC50 [9]: > 40 µM

O=C1COc2ccc(-c3ccc(O)cc3)cc2N1c1ccc(F)cc1
IC50 [1]: > 40 µM | IC50 [2]: > 40 µM | IC50 [3]: > 1 µM | IC50 [4]: > 40 µM | IC50 [5]: > 1 µM | IC50 [6]: > 1 µM | IC50 [7]: > 40 µM | IC50 [8]: 30.2 µM | IC50 [9]: > 40 µM

O=C1COc2ccc(-c3ccc(O)cc3)cc2N1
IC50 [1]: > 40 µM | IC50 [2]: > 40 µM | IC50 [3]: > 1 µM | IC50 [4]: 38.1 µM | IC50 [5]: > 1 µM | IC50 [6]: > 1 µM | IC50 [7]: > 40 µM | IC50 [8]: > 40 µM | IC50 [9]: > 40 µM

COc1ncc(-c2ccc3c(c2)NC(=O)CO3)cc1NS(=O)(=O)c1ccc(F)cc1
IC50 [1]: 26.3 µM | IC50 [2]: 24.9 µM | IC50 [3]: 0.635 µM | IC50 [4]: 6.59 µM | IC50 [5]: 0.3 µM | IC50 [6]: 0.5 µM | IC50 [7]: 7.11 µM | IC50 [8]: 32.3 µM | IC50 [9]: 8.07 µM

O=C1COc2ccc(-c3cnc(Cl)c(NS(=O)(=O)c4ccc(F)cc4)c3)cc2N1C1CCCCC1
IC50 [1]: > 40 µM | IC50 [2]: > 40 µM | IC50 [3]: 0.29 µM | IC50 [4]: > 40 µM | IC50 [5]: 0.079 µM | IC50 [6]: 0.112 µM | IC50 [7]: 14.3 µM | IC50 [8]: > 40 µM | IC50 [9]: 37.9 µM

O=C1COc2ccc(-c3cnc(Cl)c(NS(=O)(=O)c4ccc(F)cc4)c3)cc2N1
IC50 [1]: > 40 µM | IC50 [2]: > 40 µM | IC50 [3]: 0.328 µM | IC50 [4]: > 40 µM | IC50 [5]: 0.092 µM | IC50 [6]: 0.115 µM | IC50 [7]: 15.6 µM | IC50 [8]: > 40 µM | IC50 [9]: > 40 µM

CC(C)N1C(=O)COc2ccc(-c3cccc(NS(=O)(=O)c4ccc(F)cc4)c3)cc21
IC50 [1]: > 40 µM | IC50 [2]: 22.6 µM | IC50 [3]: > 1 µM | IC50 [4]: > 40 µM | IC50 [5]: > 1 µM | IC50 [6]: > 1 µM | IC50 [7]: 22.7 µM | IC50 [8]: 26 µM | IC50 [9]: 29.4 µM

O=C1COc2ccc(-c3cnc4ccccc4c3)cc2N1C1CCCCC1
IC50 [1]: > 40 µM | IC50 [2]: > 40 µM | IC50 [3]: > 1 µM | IC50 [4]: > 40 µM | IC50 [5]: > 1 µM | IC50 [6]: > 1 µM | IC50 [7]: 19.7 µM | IC50 [8]: > 40 µM | IC50 [9]: > 40 µM

COc1ncc(-c2ccc3c(c2)N(c2ccccc2)C(=O)CO3)cc1NS(=O)(=O)c1ccc(F)cc1
IC50 [1]: 15.2 µM | IC50 [2]: 18.8 µM | IC50 [3]: 0.0486 µM | IC50 [4]: 14 µM | IC50 [5]: 0.08 µM | IC50 [6]: 0.102 µM | IC50 [7]: 1.53 µM | IC50 [8]: 8.87 µM | IC50 [9]: 3.49 µM

Cc1ccc(N2C(=O)COc3ccc(-c4cnc5ccccc5c4)cc32)cc1
IC50 [1]: > 40 µM | IC50 [2]: > 40 µM | IC50 [3]: > 1 µM | IC50 [4]: > 40 µM | IC50 [5]: > 1 µM | IC50 [6]: > 1 µM | IC50 [7]: > 40 µM | IC50 [8]: > 40 µM | IC50 [9]: > 40 µM

O=C1COc2ccc(-c3cnc(Cl)c(NS(=O)(=O)c4ccc(F)cc4)c3)cc2N1c1ccc(Cl)cc1
IC50 [1]: 30.6 µM | IC50 [2]: 27.9 µM | IC50 [3]: 0.0141 µM | IC50 [4]: 33.9 µM | IC50 [5]: 0.0032 µM | IC50 [6]: 0.002 µM | IC50 [7]: > 40 µM | IC50 [8]: 32.8 µM | IC50 [9]: 21.6 µM

CC(C)N1C(=O)COc2ccc(-c3cnc(Cl)c(NS(=O)(=O)c4ccc(F)cc4)c3)cc21
IC50 [1]: 25.5 µM | IC50 [2]: 18.9 µM | IC50 [3]: 0.0043 µM | IC50 [4]: 21.5 µM | IC50 [5]: 0.0038 µM | IC50 [6]: 0.0155 µM | IC50 [7]: 5.38 µM | IC50 [8]: 26.6 µM | IC50 [9]: 5.1 µM

COc1ccc(N2C(=O)COc3ccc(-c4ccc(O)cc4)cc32)cc1
IC50 [1]: > 40 µM | IC50 [2]: 26.1 µM | IC50 [3]: > 1 µM | IC50 [4]: 10.8 µM | IC50 [5]: > 1 µM | IC50 [6]: > 1 µM | IC50 [7]: 16.4 µM | IC50 [8]: 17.3 µM | IC50 [9]: > 40 µM

COc1cccc(N2C(=O)COc3ccc(-c4ccc(O)cc4)cc32)c1
IC50 [1]: 30.4 µM | IC50 [2]: 15.3 µM | IC50 [3]: > 1 µM | IC50 [4]: 26.1 µM | IC50 [5]: > 1 µM | IC50 [6]: > 1 µM | IC50 [7]: > 40 µM | IC50 [8]: > 40 µM | IC50 [9]: > 40 µM
